# Test results from US20100075972A1, “AGENT FOR TREATMENT OF MULTIPLE SCLEROSIS” (Kowa Co., Ltd., priority 2007, published 2010).
# Experiments:
# [1] = test system: interleukin-1β production; details: as disclosed in WO 99/25697; cited from earlier work
# IL-1β mRNA = IL-1β mRNA expression in the spinal cord of experimental autoimmune encephalomyelitis mice (real-time PCR); assay type: in vivo; details: day 42, spinal cord of EAE mice of Example 1, corrected by ribosomal RNA
# Excerpt: (§1) On day 42, the spinal cord was removed from the mice employed in Example 1, and total RNA was recovered by use of ISOGEN (Nippon Gene Co., Ltd.). For comparison, similarly, the spinal cord was extirpated from unsensitized normal mice, and was employed for the below-described quantitative determination. cDNA was synthesized from the thus-obtained total RNA by use of a reverse transcriptase, and the amount of mRNA of the following gene (F4/80, TNF-α, IL-1β, or IL-6) was quantitatively determined by means of an ABI PRISM 7900HT system (Applied Biosystems) through real-time PCR employing a TaqMan probe according to the protocol of Applied Biosystems. Meanwhile, the amount of ribosomal RNA was determined, and employed for correction.
# TNF-α mRNA = TNF-α mRNA expression in the spinal cord of experimental autoimmune encephalomyelitis mice (real-time PCR); assay type: in vivo; details: day 42, spinal cord of EAE mice of Example 1, corrected by ribosomal RNA
# Excerpt: as §1
# [2] = test system: experimental autoimmune encephalomyelitis model; assay: experimental autoimmune encephalomyelitis mouse model, symptom scores; assay type: in vivo, C57BL/6 mice
# Procedure: The experimental autoimmune encephalomyelitis model is established by immunizing a mouse with myelin protein (i.e., myelin-sheath-constituting protein), thereby causing T-cell-mediated autoimmune inflammation in the central nervous system.
# Seven-week-old female C57BL/6 mice (Charles River Laboratories Japan, Inc.) were employed. A sensitizing emulsion for causing the mice to develop experimental autoimmune encephalomyelitis was prepared by mixing myelin oligodendrocyte glycoprotein (MOG) 35-55 (Alexis Biochemical) with an equiamount of complete Freund's adjuvant H37Ra (DIFCO) so that the MOG concentration was 2 mg/mL, followed by homogenization under ice cooling by means of Handy Micro Homogenizer (product of Microtec Co., Ltd.). The thus-prepared emulsion (0.1 mL) was intradermally administered to each mouse at its tail base for initial sensitization. On the same day, pertussis toxin dissolved in saline (500 ng/0.3 mL) was intravenously injected to the tail. Two days after initial sensitization, in a manner similar to that described above, pertussis toxin (500 ng/0.3 mL) was intravenously injected for booster. Drug A was orally administered (30 mg/kg) twice a day in the morning (9:00 to 11:00) and in the evening (15:30 to 17:30) from the day following the initial sensitization to 42 days after sensitization.
# The drugs were evaluated from the condition of experimentally created autoimmune encephalomyelitis according to the following ratings:
# score 1: limp tail or abnormal gait;
# score 2: limp tail and abnormal gait;
# score 3: paralysis of one limb;
# score 4: paralysis of two or more limbs; and
# In FIGS. 1 and 2 and Table 1, the data for each group (10 mice) are represented by average value±standard error (non-parametric Dunnett's test).
# IL-6 mRNA = IL-6 mRNA expression in the spinal cord of experimental autoimmune encephalomyelitis mice (real-time PCR); assay type: in vivo; details: day 42, spinal cord of EAE mice of Example 1, corrected by ribosomal RNA
# Excerpt: as §1
# F4/80 mRNA = F4/80 mRNA expression in the spinal cord of experimental autoimmune encephalomyelitis mice (real-time PCR); assay type: in vivo; details: day 42, spinal cord of EAE mice of Example 1, corrected by ribosomal RNA
# Excerpt: as §1
# [3] = oral administration of drug A 30 mg/kg twice a day
smiles,measurement,setting,value
"CSc1ccc(-c2nn(Cc3ccccc3)c(=O)cc2-c2ccc(Cl)cc2)cc1 [Drug A, 2-Benzyl-5-(4-chlorophenyl)-6-[4-(methylthio)phenyl]-2H-pyridazin-3-one]",interleukin-1β production inhibitory effect,[1],excellent
same,expression of IL-1β mRNA in spinal cord,IL-1β mRNA,found to be reduced
same,expression of TNF-α mRNA in spinal cord,TNF-α mRNA,found to be reduced
same,"Incidence rate, symptoms corresponding to score 2 or worse","[2]; EAE mice, 10 per group, Drug A 30 mg/kg orally twice a day to day 42, IFN-β 10,000 IU/individual subcutaneously every other day",8/10
same,death case during the experiment (score 5),"[2]; EAE mice, 42 days after sensitization, Drug A 30 mg/kg orally twice a day, IFN-β 10,000 IU/individual s.c. every other day",no death case was observed
same,"Days required for onset, symptoms corresponding to score 2 or worse","[2]; EAE mice, average ± standard error, Drug A 30 mg/kg orally twice a day, IFN-β 10,000 IU/individual subcutaneously every other day",22.4 ± 1.5 days
same,experimental autoimmune encephalomyelitis scores (FIG. 1),[2]; [3],ameliorated to almost the same extent as in the case of IFN-β
same,maximum score of experimental autoimmune encephalomyelitis symptoms (FIG. 2),[2]; [3],tended to be reduced
same,onset of symptoms corresponding to score 2 or worse (in words),[2]; [3],tended to be delayed
same,expression of IL-6 mRNA in spinal cord,IL-6 mRNA,found to be reduced
same,amount of expression of mRNA of F4/80 in spinal cord,F4/80 mRNA,found to be reduced
